# Like-named read-outs stand apart in the source and are kept apart here.
# Assays:
# [1] = test system: Pseudomanas aeruginosa BMH 1; experiment: Agar dilution MIC, pH 8.0: Pseudomonas aeruginosa BMH 1; type: cell-based
# [2] = test system: Staphylococcus aureus ATCC 6538P; experiment: Agar dilution MIC, pH 8.0: Staphylococcus aureus ATCC 6538P; type: cell-based; conditions: ATCC6538P
# [3] = test system: Bacillus subtilis No. 10707; experiment: Agar dilution MIC, pH 8.0: Bacillus subtilis No. 10707; type: cell-based
# [4] = test system: Proteus vulgaris ATCC 6897; experiment: Agar dilution MIC, pH 8.0: Proteus vulgaris ATCC 6897; type: cell-based
# [5] = test system: Shigella seanei ATCC 9250; experiment: microbe, parasite or virus in culture; type: cell-based
# [6] = test system: Salmanella typhosa ATCC 9992; experiment: microbe, parasite or virus in culture; type: cell-based
# [7] = test system: Krobsiella pneumoniae ATCC 10081; experiment: Agar dilution MIC, pH 8.0: Krobsiella pneumoniae ATCC 10081; type: cell-based
# [8] = test system: Escherichia coli ATCC 26; experiment: Agar dilution MIC, pH 8.0: Escherichia coli ATCC 26; type: cell-based
# [9] = test system: staphylococcus aureus 209P; experiment: Agar dilution MIC, pH 7.2: Staphylococcus aureus 209P; type: cell-based; conditions: pH 7.2, read-out: Minimum Inhibitory Concentration
# [10] = test system: staphylococcus aureus Smith; experiment: Agar dilution MIC, pH 7.2: Staphylococcus aureus Smith; type: cell-based; conditions: pH 7.2, read-out: Minimum Inhibitory Concentration
# [11] = test system: Bacillus subtillus ATCC 6688; experiment: Agar dilution MIC, pH 7.2: Bacillus subtillus ATCC 6688; type: cell-based
# [12] = test system: Sarcina lucca ATCC 9341; experiment: Agar dilution MIC, pH 7.2: Sarcina lucca ATCC 9341; type: cell-based; conditions: ATCC9341, pH 7.2, read-out: Minimum Inhibitory Concentration
# [13] = test system: Escherichia coli T-2; experiment: Agar dilution MIC, pH 7.2: Escherichia coli T-2; type: cell-based; conditions: T2, pH 7.2, read-out: Minimum Inhibitory Concentration
# [14] = test system: Escherichia coli T-5; experiment: Agar dilution MIC, pH 7.2: Escherichia coli T-5; type: cell-based; conditions: T5, pH 7.2, read-out: Minimum Inhibitory Concentration
# [15] = test system: Escherichia coli KY 8321; experiment: Agar dilution MIC, pH 7.2: Escherichia coli KY 8321; type: cell-based; conditions: KY8321, pH 7.2, read-out: Minimum Inhibitory Concentration
# [16] = test system: Pseudomonas aeruginosa BMH No. 1; experiment: Agar dilution MIC, pH 7.2: Pseudomonas aeruginosa BMH No. 1; type: cell-based
# [17] = test system: Pseudomonas aeruginosa KY 8510; experiment: Agar dilution MIC, pH 7.2: Pseudomonas aeruginosa KY 8510; type: cell-based; conditions: KY8510, pH 7.2, read-out: Minimum Inhibitory Concentration
# [18] = test system: Pseudomonas aeruginosa KY 8511; experiment: Agar dilution MIC, pH 7.2: Pseudomonas aeruginosa KY 8511; type: cell-based; conditions: KY8511, pH 7.2, read-out: Minimum Inhibitory Concentration
# [19] = test system: Pseudomonas aeruginosa KY 8512; experiment: Agar dilution MIC, pH 7.2: Pseudomonas aeruginosa KY 8512; type: cell-based; conditions: KY8512, pH 7.2, read-out: Minimum Inhibitory Concentration
# From the text: ^7 produces neamycinkanamycin phosphotransferase Type
# [20] = test system: Pseudomonas aeruginosa KY 8516; experiment: Agar dilution MIC, pH 7.2: Pseudomonas aeruginosa KY 8516; type: cell-based; conditions: KY8516, pH 7.2, read-out: Minimum Inhibitory Concentration
# [21] = test system: Klebsiella pneumoniae No. 8045; experiment: Agar dilution MIC, pH 7.2: Klebsiella pneumoniae No. 8045; type: cell-based; conditions: NO.8045, pH 7.2, read-out: Minimum Inhibitory Concentration
# [22] = test system: Proteus Mirabilis 1287; experiment: Agar dilution MIC, pH 7.2: Proteus Mirabilis 1287; type: cell-based; conditions: pH 7.2, read-out: Minimum Inhibitory Concentration
# [23] = test system: Proteus vulgaris 6897; experiment: Agar dilution MIC, pH 7.2: Proteus vulgaris 6897; type: cell-based; conditions: Proteus vulgaris, 6897, pH 7.2, read-out: Minimum Inhibitory Concentration
# [24] = test system: Proteus marganii KY 4298; experiment: Agar dilution MIC, pH 7.2: Proteus marganii KY 4298; type: cell-based
# [25] = test system: Escherichia coli KY 8327; experiment: Agar dilution MIC, pH 8.0: Escherichia coli KY 8327; type: cell-based; conditions: for MIC: Escherichia coli, KY8327, agar-dilution method, pH 8.0, strain produces gentamicin adenyltransferase, read-out: Minimum Inhibitory Concentration; for anti-bacterial activity: comparison of MIC in Table 1, E. coli KY 8327
# From the text: (§1) The former bacterium inactivates kanamycins and gentamicins by adenylation, and the latter inactivates gentamicins by acetylation.
# [26] = test system: Escherichia coli KY 8348; experiment: Agar dilution MIC, pH 8.0: Escherichia coli KY 8348; type: cell-based; conditions: for MIC: Escherichia coli, KY8348, agar-dilution method, pH 8.0, strain produces gentamicin acetyltransferase Type I, read-out: Minimum Inhibitory Concentration; for anti-bacterial activity: comparison of MIC in Table 1, E. coli KY 8348
# From the text: as §1
# [27] = test system: strains of Escherichia coli having an R factor; experiment: Anti-bacterial activity against Escherichia coli having an R factor; type: cell-based; conditions: E. coli having an R factor which shows resistance to known aminoglycoside antibiotics
# [28] = Solubility; type: physicochemical
# [29] = test system: various bacteria having a resistance to at least one of gentamicin antibiotics and XK-62-2; experiment: Antibacterial activity against resistant bacteria (summary of Table 2); type: cell-based; conditions: bacteria producing gentamicin adenyltransferase and/or gentamicin acetyltransferase Type I and Type II; from Table 2
# [30] = pH 8, read-out: Minimum Inhibitory Concentration
# [31] = BMH1, agar-dilution method, pH 8.0, read-out: Minimum Inhibitory Concentration
# [32] = agar-dilution method, pH 8.0, read-out: Minimum Inhibitory Concentration
# [33] = NO.10707, agar-dilution method, pH 8.0, read-out: Minimum Inhibitory Concentration
# [34] = ATCC6897, agar-dilution method, pH 8.0, read-out: Minimum Inhibitory Concentration
# [35] = ATCC9250, agar-dilution method, pH 8.0, read-out: Minimum Inhibitory Concentration
# [36] = ATCC26, agar-dilution method, pH 8.0, read-out: Minimum Inhibitory Concentration
# [37] = ATCC6688, agar dilution method, pH 7.2, read-out: Minimum Inhibitory Concentration
# [38] = BMHNO.1, agar dilution method, pH 7.2, read-out: Minimum Inhibitory Concentration
structure (smiles),measurement,setting,value
"NC[C@H]1O[C@H](O[C@H]2[C@H](O)[C@@H](O[C@H]3O[C@H](CO)[C@@H](O)[C@H](N)[C@H]3O)[C@H](N)C[C@@H]2N)[C@H](O)[C@@H](O)[C@@H]1O [Kanamycin A, kanamycin A]",MIC,"[1]; BMH1, pH 8, read-out: Minimum Inhibitory Concentration",5.2 µg/mL
same,MIC,[2]; [30],0.021 µg/mL
same,MIC,"[3]; NO.10707, pH 8, read-out: Minimum Inhibitory Concentration",0.021 µg/mL
same,MIC,"[4]; ATCC6897, pH 8, read-out: Minimum Inhibitory Concentration",0.16 µg/mL
same,MIC,"[5]; ATCC9250, pH 8, read-out: Minimum Inhibitory Concentration",0.16 µg/mL
same,MIC,[6]; [30],0.088 µg/mL
same,MIC,[7]; [30],0.042 µg/mL
same,MIC,"[8]; ATCC26, pH 8, read-out: Minimum Inhibitory Concentration",0.16 µg/mL
same,MIC,[9],0.2 µg/mL
same,MIC,[10],0.2 µg/mL
same,MIC,"[11]; ATCC6688, pH 7.2, read-out: Minimum Inhibitory Concentration",0.2 µg/mL
same,MIC,[12],6.25 µg/mL
same,MIC,[13],1.56 µg/mL
same,MIC,[14],1.56 µg/mL
same,MIC,[15],100 µg/mL
same,MIC,"[16]; BMHNO.1, pH 7.2, read-out: Minimum Inhibitory Concentration",12.5 µg/mL
same,MIC,[17],100 µg/mL
same,MIC,[18],100 µg/mL
same,MIC,[19],12.5 µg/mL
same,MIC,[20],> 100 µg/mL
same,MIC,[21],0.4 µg/mL
same,MIC,[22],6.25 µg/mL
same,MIC,[23],3.12 µg/mL
same,MIC,"[24]; pH 7.2, read-out: Minimum Inhibitory Concentration",1.56 µg/mL
"CNC[C@@H]1CC[C@@H](NC(=O)[C@@H](O)CCN)[C@@H](O[C@H]2[C@H](O)[C@@H](O[C@H]3OC[C@](C)(O)[C@H](NC)[C@H]3O)[C@H](N)C[C@@H]2N)O1 [Compound I, 2'-N-[L-(-)-α-hydroxy-γ-aminobutyryl]XK-62-2]",MIC,[1]; [31],25 µg/mL
same,MIC,[2]; [32],0.05 µg/mL
same,MIC,[3]; [33],0.05 µg/mL
same,MIC,[4]; [34],0.39 µg/mL
same,MIC,[5]; [35],0.39 µg/mL
same,MIC,[6]; [32],0.2 µg/mL
same,MIC,[7]; [32],0.1 µg/mL
same,MIC,[8]; [36],0.39 µg/mL
same,MIC,[25],3.1 µg/mL
same,anti-bacterial activity,[25],strong anti-bacterial activity
same,MIC,[26],0.05 µg/mL
same,anti-bacterial activity,[26],strong anti-bacterial activity
same,anti-bacterial activity,[27],strong anti-bacterial activity
CNC[C@@H]1CC[C@@H](N)[C@@H](O[C@H]2[C@H](O)[C@@H](O[C@H]3OC[C@](C)(O)[C@H](NC)[C@H]3O)[C@H](N)C[C@@H]2N)O1 [XK-62-2],MIC,[4]; [34],0.033 µg/mL
same,MIC,[5]; [35],0.033 µg/mL
same,MIC,[6]; [32],0.008 µg/mL
same,MIC,[7]; [32],0.004 µg/mL
same,MIC,[8]; [36],0.016 µg/mL
same,MIC,[11]; [37],< 0.05 µg/mL
same,MIC,[12],0.4 µg/mL
same,MIC,[16]; [38],0.78 µg/mL
same,MIC,"[24]; agar dilution method, pH 7.2, read-out: Minimum Inhibitory Concentration",0.4 µg/mL
same,solubility,"[28]; in chloroform, benzene, ethyl acetate and n-hexane",insoluble
same,solubility,[28]; in ethanol and acetone,slightly soluble
same,solubility,[28]; in water and methanol,well soluble
"CNC[C@@H]1CC[C@@H](NC(=O)[C@@H](O)CCN)[C@@H](O[C@H]2[C@H](O)[C@@H](O[C@H]3OC[C@](C)(O)[C@H](NC)[C@H]3O)[C@H](N)C[C@@H]2NC(=O)[C@@H](O)CCN)O1 [IV, 3-N-2'-N-bis[L-(-)-α-hydroxy-γ-aminobutyryl]XK-62-2]",MIC,[1]; [31],8.34 µg/mL
same,MIC,[2]; [32],0.13 µg/mL
same,MIC,[3]; [33],0.016 µg/mL
same,MIC,[4]; [34],0.521 µg/mL
same,MIC,[5]; [35],0.26 µg/mL
same,MIC,[6]; [32],0.13 µg/mL
same,MIC,[7]; [32],0.065 µg/mL
same,MIC,[8]; [36],0.13 µg/mL
same,MIC,[25],0.26 µg/mL
same,anti-bacterial activity,[25],strong anti-bacterial activity
same,MIC,[26],0.13 µg/mL
same,anti-bacterial activity,[26],strong anti-bacterial activity
same,anti-bacterial activity,[27],strong anti-bacterial activity
"CNC[C@@H]1CC[C@@H](N)[C@@H](O[C@H]2[C@H](O)[C@@H](O[C@H]3OC[C@](C)(O)[C@H](NC)[C@H]3O)[C@H](NC(=O)[C@@H](O)CCN)C[C@@H]2N)O1 [Compound II, 1-N-[L-(-)-α-hydroxy-γ-aminobutyryl]XK-62-2]",MIC,[2]; [32],0.016 µg/mL
same,MIC,[4]; [34],0.065 µg/mL
same,MIC,[7]; [32],0.008 µg/mL
same,MIC,[25],0.016 µg/mL
same,anti-bacterial activity,[25],strong anti-bacterial activity
same,anti-bacterial activity,[26],strong anti-bacterial activity
same,MIC,[11]; [37],0.1 µg/mL
same,MIC,[12],0.4 µg/mL
same,MIC,[16]; [38],1.56 µg/mL
same,anti-bacterial activity,[27],strong anti-bacterial activity
same,antibacterial activity,[29],very strong antibacterial activity
"CNC[C@@H]1CC[C@@H](NC(=O)[C@@H](O)CCN)[C@@H](O[C@H]2[C@H](O)[C@@H](O[C@H]3OC[C@](C)(O)[C@H](NC)[C@H]3O)[C@H](NC(=O)[C@@H](O)CCN)C[C@@H]2N)O1 [III, 1-N-2'-N-bis-[L-(-)-α-hydroxy-γ-aminobutyryl]XK -62-2]",MIC,[1]; [31],8.34 µg/mL
same,MIC,[2]; [32],0.065 µg/mL
same,MIC,[3]; [33],0.008 µg/mL
same,MIC,[4]; [34],0.521 µg/mL
same,MIC,[5]; [35],0.26 µg/mL
same,MIC,[7]; [32],0.065 µg/mL
same,MIC,[8]; [36],0.065 µg/mL
same,MIC,[25],0.065 µg/mL
same,anti-bacterial activity,[25],strong anti-bacterial activity
same,MIC,[26],0.065 µg/mL
same,anti-bacterial activity,[26],strong anti-bacterial activity
same,anti-bacterial activity,[27],strong anti-bacterial activity

# — US4218562A, “Antibiotic derivatives of XK-62-2” (Abbott Laboratories, priority 1978, dated 1980)
